Results taken from ChEMBL document CHEMBL5550215, “Discovery of Novel Imidazo[1,2-a]pyridine-Based HDAC6 Inhibitors as an Anticarcinogen with a Cardioprotective Effect” (J Med Chem, 2024).
pIC50: −log10 of the molar value.

Key:
H9c2 [1] = test: Protection against H2O2 induced myocardial cell injury in rat H9c2 cells assessed as fold change at 10 uM pretreated for 24 hrs followed by H2O2 exposure and measured after 1.5 hrs relative to H2O2 alone; assay type: functional; conditions: time 25.5 hrs
H9c2 [2] = test: Protection against H2O2 induced myocardial cell injury in rat H9c2 cells at 10 uM pretreated for 24 hrs followed by H2O2 exposure and measured after 1.5 hrs (reference value: 17.91 to 57.32%); assay type: functional; conditions: time 25.5 hrs
MGC-803 = test: Antiproliferative activity against human MGC-803 cells assessed as inhibition of cell growth by MTT assay
NCI-H460 = test: Antiproliferative activity against human NCI-H460 cells assessed as inhibition of cell growth by MTT assay
PC-3 = test: Antiproliferative activity against human PC-3 cells assessed as inhibition of cell growth by MTT assay
HCT-116 = test: Antiproliferative activity against human HCT-116 cells assessed as inhibition of cell growth by MTT assay
TE-1 = test: Antiproliferative activity against human TE-1 cells assessed as inhibition of cell growth by MTT assay
PANC-1 = test: Antiproliferative activity against human PANC-1 cells assessed as inhibition of cell growth by MTT assay
SMMC-7721 = test: Antiproliferative activity against human SMMC-7721 cells assessed as inhibition of cell growth by MTT assay

Row | Compound | fold change (FC) (H9c2 [1]) | Activity (H9c2 [2]) [%] | further results
1 | Cc1ccc(-c2cc(CNc3ccc(C(=O)NN)cc3)c3nccn3c2)cc1 | 2.63 | 85.94 | –
2 | CCc1ccc(-c2cc(CNc3ccc(C(=O)NO)cc3)c3nccn3c2)cc1 | 1.73 | 63.8 | –
3 | Cc1ccc(-c2cc(CNc3ccc(C(=O)NNc4ccccc4)cc3)c3nccn3c2)cc1 | 2.14 | 64.68 | –
4 | O=C(NO)c1ccc(NCc2cc(-c3ccccc3Cl)cn3ccnc23)cc1 | 1.6 | 57.08 | –
5 | Cc1ccc(-c2cc(CNc3ccc(C(=O)NO)cc3)c3nccn3c2)cc1 | 1.93 | 68.72 | –
6 | Cc1ccc(-c2cc(CNc3ccc(C(=O)NO)cc3F)c3nccn3c2)cc1 | 1.36 | 52.82 | –
7 | Cc1ccccc1-c1cc(NCc2ccc(C(=O)NO)cc2)c2nccn2c1 | 1.4 | 67.83 | –
8 | Cc1ccc(-c2cc(CNc3ccc(C(=O)NOC4CCCCO4)cc3)c3nccn3c2)cc1 (centres undefined) | 1.69 | 59.02 | –
9 | Cc1cccc(-c2cc(NCc3ccc(C(=O)NO)cc3)c3nccn3c2)c1 | 1.01 | 49.08 | –
10 | COc1ccc(-c2cc(CNc3ccc(C(=O)NO)cc3)c3nccn3c2)c(OC)c1 | 1.52 | 56.04 | –
11 | Cc1ccccc1-c1cc(C(=O)Nc2ccc(C(=O)NO)cc2)c2nccn2c1 | 1.57 | 56.16 | –
12 | CC(C)c1ccc(-c2cc(CNc3ccc(C(=O)NO)cc3)c3nccn3c2)cc1 | 1.47 | 54.12 | –
13 | O=C(NO)c1ccc(CNc2cc(-c3cccc(F)c3)cn3ccnc23)cc1 | 1.5 | 72.58 | –
14 | O=C(NO)c1ccc(CNc2cc(-c3ccccc3F)cn3ccnc23)cc1 | 1.13 | 54.74 | –
15 | O=C(NO)c1ccc(NCc2cc(-c3ccc(F)cc3)cn3ccnc23)cc1 | 1.86 | 66.3 | –
16 | COc1cc(-c2cc(C(=O)N3CCOCC3)c3nccn3c2)cc(OC)c1OC | 0.73 | 34.81 | –
17 | Cc1ccc(-c2cc(CNc3ccc(C(=O)NO)cn3)c3nccn3c2)cc1 | 1.27 | 58.82 | –
18 | COc1ccc(-c2cc(CNc3ccc(C(=O)NO)cc3)c3nccn3c2)cc1 | 1.56 | 57.47 | –
19 | COc1cc(-c2cc(C(=O)NCCN3CCN(C(=O)OC(C)(C)C)CC3)c3nccn3c2)cc(OC)c1OC | 1.1 | 49.54 | –
20 | O=C(NO)c1ccc(NC(=O)c2cc(-c3ccc(F)cc3)cn3ccnc23)cc1 | 2.11 | 74.82 | –
21 | COc1cc(-c2cc(C(=O)NCCN3CCOCC3)c3nccn3c2)cc(OC)c1OC | 0.63 | 36.19 | –
22 | COc1cc(-c2cc(C(=O)Nc3ccccc3)c3nccn3c2)cc(OC)c1OC | 1.23 | 61.69 | –
23 | O=C(NO)c1ccc(NCc2cc(-c3cccc(Br)c3)cn3ccnc23)cc1 | – | 98.49 | pIC50 (MGC-803): 5.29; pIC50 (NCI-H460): 5.03; pIC50 (PC-3): < 5.00; pIC50 (HCT-116): < 5.00; pIC50 (TE-1): 5.21; pIC50 (PANC-1): < 5.00; pIC50 (SMMC-7721): 5.50
24 | O=C(NO)c1ccc(NCc2cc(-c3cccs3)cn3ccnc23)cc1 | 1.87 | 68.84 | –
25 | Cc1ccc(-c2cc(C(=O)Nc3ccc(C(=O)NO)cc3)c3nccn3c2)cc1 | 1.84 | 65.82 | –

Row | Compound | fold change (FC) (H9c2 [1]) | Activity (H9c2 [2]) [%] | further results
26 | Cc1ccccc1-c1cc(C(=O)NCc2ccc(C(=O)NO)cc2)c2nccn2c1 | – | 63.03 | pIC50 (MGC-803): 5.88; pIC50 (NCI-H460): 5.06; pIC50 (PC-3): < 5.00; pIC50 (HCT-116): 5.02; pIC50 (TE-1): 5.59; pIC50 (PANC-1): < 5.00; pIC50 (SMMC-7721): 5.59
27 | Cc1ccc(-c2cc(CNc3ccc(C(=O)NNc4ccccc4F)cc3)c3nccn3c2)cc1 | 1.19 | 35.98 | –
28 | Cc1ccc(-c2cc(CNc3ccc(C(=O)NO)cc3Cl)c3nccn3c2)cc1 | 2.79 | 108.57 | –
29 | O=C(NO)c1ccc(NCc2cc(-c3ccccc3F)cn3ccnc23)cc1 | 1.55 | 57.23 | –
30 | Cc1ccc(-c2cc(CNc3ccc(C(=O)NNC(C)(C)C)cc3)c3nccn3c2)cc1 | 2.17 | 65.75 | –
31 | O=C(NO)c1ccc(NCc2cc(-c3cccc(Cl)c3)cn3ccnc23)cc1 | – | 73.84 | pIC50 (MGC-803): 5.42; pIC50 (NCI-H460): < 5.00; pIC50 (PC-3): < 5.00; pIC50 (HCT-116): < 5.00; pIC50 (TE-1): < 5.00; pIC50 (PANC-1): < 5.00; pIC50 (SMMC-7721): 5.52
32 | COc1ccccc1-c1cc(CNc2ccc(C(=O)NO)cc2)c2nccn2c1 | 1.9 | 67.63 | –
33 | COc1ccccc1CNC(=O)c1ccc(NCc2cc(-c3ccc(C)cc3)cn3ccnc23)cc1 | 1.88 | 56.7 | –
34 | COc1cc(-c2cc(C(=O)NCCN3CCN(C(=O)OC(C)(C)C)CC3)c3ccccc3n2)cc(OC)c1OC | 1.19 | 53.37 | –
35 | Cc1ccc(-c2cc(CNc3ccc(C(=O)Nc4ccccc4N)cc3)c3nccn3c2)cc1 | 1.21 | 21.76 | –
36 | Cc1cccc(-c2cc(C(=O)Nc3ccc(C(=O)NO)cc3)c3nccn3c2)c1 | 2.19 | 78.26 | –
37 | COc1cc(-c2cc(C(=O)NCc3ccccc3)c3nccn3c2)cc(OC)c1OC | 0.99 | 56.67 | –
38 | O=C(NO)c1ccc(CNc2cc(-c3ccc(F)cc3)cn3ccnc23)cc1 | 1.86 | 90.19 | –
39 | Cc1ccc(-c2cc(CNc3ccc(C(=O)O)cc3)c3nccn3c2)cc1 | 1.01 | 18.02 | –
40 | Cc1ccc(-c2cc(CNc3ccc(C(=O)NNC(=O)OC(C)(C)C)cc3)c3nccn3c2)cc1 | 2.12 | 64.23 | –
41 | Cc1ccccc1-c1cc(CNc2ccc(C(=O)NO)cc2)c2nccn2c1 | 1.38 | 67.73 | –
42 | CCc1ccccc1-c1cc(CNc2ccc(C(=O)NO)cc2)c2nccn2c1 | 2.01 | 50.13 | –
43 | O=C(NO)c1ccc(NCc2cc(-c3cccc(F)c3)cn3ccnc23)cc1 | 1.46 | 53.76 | –
44 | Cc1cccc(-c2cc(CNc3ccc(C(=O)NO)cc3)c3nccn3c2)c1 | 1.36 | 50.3 | –
45 | Cc1cccc(-c2cc(C(=O)NCc3ccc(C(=O)NO)cc3)c3nccn3c2)c1 | – | 74.81 | pIC50 (MGC-803): 5.46; pIC50 (NCI-H460): < 5.00; pIC50 (PC-3): < 5.00; pIC50 (HCT-116): 5.24; pIC50 (TE-1): 5.56; pIC50 (PANC-1): < 5.00; pIC50 (SMMC-7721): 5.70
46 | Cc1ccc(-c2cc(CNc3ccc(C(=O)NNC(C)C)cc3)c3nccn3c2)cc1 | 1.82 | 54.92 | –
47 | Cc1ccc(-c2cc(CNc3ccc(C(=O)NO)cc3C)c3nccn3c2)cc1 | 1.51 | 53.88 | –
48 | COc1ccccc1NC(=O)c1ccc(NCc2cc(-c3ccc(C)cc3)cn3ccnc23)cc1 | 1.61 | 48.69 | –
49 | Cc1ccc(-c2cc(NCc3ccc(C(=O)NO)cc3)c3nccn3c2)cc1 | 2.08 | 74.15 | –
50 | Cc1ccc(-c2cc(CNc3ccc(C(=O)N4CCOCC4)cc3)c3nccn3c2)cc1 | 2.05 | 62.08 | –
